Blank lines part the entries; values can stand above or below the compound they belong to.
How the values were obtained:
[1] = Reactivity (second order rate constant k2) between TZ Triggers and TCO Activator 4.9 in MeCN at 20° C.; format: physicochemical
Procedure: The second order rate constant of the reaction (k2) between a TZ and TCO 4.9 was determined under pseudo first order conditions in MeCN at 20° C. using UV spectroscopic monitoring. […] From the decrease of this absorption, the half-life of the pseudo first order reaction between TZ and TCO was determined. The second order rate constant k2 was obtained by calculation from this half-life and the concentration of TCO

[2] = Rate of release of Constructs from IEDDA adducts formed by activation of TZ Trigger with TCO Activator 4.9; format: physicochemical
Procedure: (§1) Then, 10 μL of a 50 mM TCO 4.9 stock solution in DMSO (5.0×10^−7 mol TCO) was added. After the complete disappearance of the pink color (this takes typically between 5 and 30 min, and is due to the IEDDA reaction between TZ and TCO thereby forming IEDDA adducts), the sample was diluted with PBS to a total volume of 1 mL (t=0). […] At selected time points, this solution was analyzed by HPLC-PDA/MS. The decrease of the IEDDA adduct absorption(s) and/or the rise of the leaving group absorption indicated the conversion of the release reaction. […] Alternatively, the rate of the release reaction can be indicated by the conversion (in %) after a certain reaction time (in hours).

[3] = Stability of tetrazine (TZ) Triggers in a MeCN/PBS mixture
Procedure: (§2) 10 μL of a 25 mM TZ stock solution in DMSO (2.5×10^−7 mol TZ) was diluted with MeCN and PBS to a total volume of 1 mL. The aqueous solution was incubated at 20° C. or at 37° C. At selected time points, the TZ solution was analyzed by HPLC-PDA/MS.

[4] = Rate of release of Constructs from IEDDA adducts formed by activation of TZ Trigger with TCO Activator 4.9; format: physicochemical; conditions: Method F: MeCN at 37° C.; 23 h
[5] = Rate of release of a Construct from the IEDDA adduct in 50% mouse serum/PBS; format: in vitro ADME; conditions: 37° C., 21 h
Procedure: 10 μL of a 25 mM TZ stock solution in DMSO (2.5×10^−7 mol TZ) was diluted with MeCN (50 μL), PBS (475 μL), and mouse serum (475 μL). Then, a stock solution of the appropriate TCO (20 μL 50 mM in DMSO; 1.0×10^−6 mol) was added, and the mixture was incubated at 37° C. At selected time points, aliquots (250 μL) were taken, diluted with cold MeCN (500 μL), stored at 4° C. for 30 min, and then centrifuged at 13400 rpm for 5 min. Part of the clear supernatant (250 μL) was diluted with water (500 μL) and the sample was analyzed by HPLC-PDA/MS.

[6] = Stability of TZ Triggers in 50% mouse serum/PBS; format: in vitro ADME; conditions: 37° C.
Procedure: The mixture was incubated at 37° C. […] The stability was determined as outlined in Example 5.

physchem = conditions: buffer
Procedure: as §2

[7] = Rate of release of Constructs as Example 7 but after reaction with sTCO 4.8; format: physicochemical; conditions: Method E: 5% MeCN in PBS at 37° C.
Procedure: as §1, with “Then, 10 μL of a 50 mM TCO 4.9 stock solution in DMSO (5.0×10^−7 mol TCO) was added.” left out

[8] = Reactivity (k2) as Example 6 but assessed with sTCO 4.8; format: physicochemical; conditions: assessed with sTCO 4.8 and not TCO 4.9; MeCN at 20° C.
Procedure: A cuvette was filled with 3 mL of a 3.33 mM TCO solution in MeCN (1.0×10^−5 mol TCO) and this solution was equilibrated at 20° C. […] From the decrease of this absorption, the half-life of the pseudo first order reaction between TZ and TCO was determined. The second order rate constant k2 was obtained by calculation from this half-life and the concentration of TCO

[9] = system: LS174T colon carcinoma xenografts; test: In vivo on-tumor reaction between ADC and TCO activators (tumor blocking, ^111In-TCO probe uptake); design: species or system mouse; conditions: ADC (2 mg/kg), one hour later ^111In-TCO probe, 4 h after probe injection
Procedure: DOTA-PEG11-TCO probe 4.4 was labeled with indium-111 in 0.2 M ammonium acetate buffer (pH 6.0) for 10 min at 60° C. followed by a DTPA-challenge to complex any unreacted radiometal. The radiolabeling yield (>95%) and radiochemical purity (>95%) of the obtained ^111In-TCO probe was assessed by radio-ITLC and radio-RP-HPLC, respectively. The on-tumor reactivity between AVP0450-15.4 ADC and two different activators, sTCO—COOH (4.8) and sTCO-PEG11-OH (4.6) in two different doses (100 and 1000 eq with respect to ADC) was evaluated with an in vivo competition assay (tumor blocking), as previously described for a CC49-TCO-Dox conjugate and tetrazine-activators (R. Rossin et al., Bioconjug Chem 2016, 27, 1697-1706). Briefly, mice bearing subcutaneous LS174T colon carcinoma xenografts (n=4 per group) were administered the ADC (2 mg/kg) followed after 48 h by the activator and, one hour later, by the ^111In-TCO probe (1 eq with respect to ADC). The probe uptake in tumors was then compared with mice that received the ADC followed only by the ^111In-TCO probe (no blocking) and with mice that received the ^111In-TCO probe alone (complete blocking). All mice were euthanized 4 h after probe injection. Blood samples were obtained from heart puncture, tumors and other tissues of interest were dissected, blotted dry, weighed and counted in a gamma-counter.

[10] = Method C: 20% MeCN in PBS at 37° C., 16 h
[11] = Method A: 33% MeCN in PBS at 20° C., 16 h

SMILES: CC(OC(=O)NCc1ccccc1)c1nnc(C(C)OC(=O)NCc2ccccc2)nn1 (mixture of isomers) [Compound 2.5]
Reactivity k2 ([1]; TZ with TCO in MeCN at 20° C.): 1.5 M⁻¹ s⁻¹

SMILES: CC(OC(=O)N(C)Cc1ccccc1)c1nnc(C(C)OC(=O)N(C)Cc2ccccc2)nn1 (mixture of isomers) [Compound 2.36]
Release % (conversion) [2, 10]: 100% (16 h)

SMILES: CC(OC(=O)N(c1ccccc1)C(C)C)c1nnc(C(C)OC(=O)N(c2ccccc2)C(C)C)nn1 (mixture of isomers) [Compound 2.40]
Reactivity k2 ([1]; TZ with TCO in MeCN at 20° C.): 1.22 M⁻¹ s⁻¹ | Release % (conversion) ([2]; Method C: 20% MeCN in PBS at 37° C., 22 h): 100% (22 h)

SMILES: Cc1cc(C)cc(NC(=O)OC(C)c2nnc(-c3ccccc3)nn2)c1 (racemic) [Compound 2.17]
Reactivity k2 ([1]; TZ with TCO in MeCN at 20° C.): 4.5 M⁻¹ s⁻¹

SMILES: CC(C)c1nnc(C(C)OC(=O)N(C)c2ccccc2)nn1 (racemic) [Compound 2.20]
Reactivity k2 ([1]; TZ with TCO in MeCN at 20° C.): 0.19 M⁻¹ s⁻¹ | Release % (conversion) ([2]; Method C: 20% MeCN in PBS at 37° C., 1.3 h): 45% | Release % (conversion) [2, 10]: 100%

SMILES: CC(OC(=O)N(C)Cc1ccccc1)c1nnc(-c2ccccc2)nn1 (racemic) [Compound 2.21]
Reactivity k2 ([1]; TZ with TCO in MeCN at 20° C.): 2.54 M⁻¹ s⁻¹

SMILES: CC(OC(=O)N(C)c1ccccc1)c1nnc(-c2ccccc2)nn1 (racemic) [Compound 2.22]
Reactivity k2 ([1]; TZ with TCO in MeCN at 20° C.): 2.51 M⁻¹ s⁻¹

SMILES: O=C(NCc1ccccc1)OCc1nnc(COC(=O)NCc2ccccc2)nn1 [Compound 2.4]
Reactivity k2 ([1]; TZ with TCO in MeCN at 20° C.): 24 M⁻¹ s⁻¹

half-life at 250 µM [3]: 18 h
SMILES: CC(OC(=O)c1ccccc1)c1nnc(C(C)OC(=O)c2ccccc2)nn1 (centres unmarked) [Compound 2.7]
Release % (conversion) [2, 11]: 96% (16 h)

half-life at 250 µM [3]: 6.5 h
SMILES: CC(OC(=O)OCc1ccccc1)c1nnc(C(C)OC(=O)OCc2ccccc2)nn1 (centres unmarked) [Compound 2.8]
Release % (conversion) [2, 11]: 100% (16 h)

half-life at 250 µM [3]: < 4 h
SMILES: O=C(OCc1nnc(-c2ccccc2)nn1)Oc1ccccc1 [Compound 2.18]
Release % (conversion) [4]: 10% (23 h)

Stability t1/2 [6]: 32 h
SMILES: CC(C)c1nnc(COC(=O)N(C)Cc2ccccc2)nn1 [Compound 2.19]
Release % (conversion) ([5]; Dienophile 4.0, axial isomer): 61% (21 h) | Reactivity k2 ([1]; TZ with TCO in MeCN at 20° C.): 0.79 M⁻¹ s⁻¹

Stability t1/2 [6]: 16 h
SMILES: CN(Cc1ccccc1)C(=O)OCc1nnc(CCN(C)C(=O)OC(C)(C)C)nn1 [Compound 2.24]
Release % (conversion) ([5]; Dienophile 4.0, axial isomer): 51% (21 h) | Reactivity k2 ([1]; TZ with TCO in MeCN at 20° C.): 4.6 M⁻¹ s⁻¹

half-life at 248 µM ([6]; 50% mouse serum in PBS, read-out: Stability t1/2 (converted)): 55 h | half-life at 250 µM [3]: 650 h
SMILES: CC(C)c1nnc(C(C)OC(=O)N(Cc2ccccc2)C(C)C)nn1 (centres unmarked) [Compound 2.42]
Release % (conversion) ([5]; Dienophile 4.8, endo isomer): 77% (21 h) | Reactivity k2 ([1]; TZ with TCO in MeCN at 20° C.): 0.21 M⁻¹ s⁻¹ | Release % (conversion) [2, 10]: 100% (16 h)

half-life at 250 µM [3]: > 4800 h
SMILES: CC(OC(=O)N(C)Cc1ccccc1)c1nnc(-c2ccc(NC(=O)OC(C)(C)C)cc2)nn1 (centres unmarked) [Compound 2.48]
Reactivity k2 ([1]; TZ with TCO in MeCN at 20° C.): 1.46 M⁻¹ s⁻¹

half-life at 250 µM [3]: > 4800 h
SMILES: CC(OC(=O)N(C)Cc1ccccc1)c1nnc(-c2ccc(N)cc2)nn1 (centres unmarked) [Compound 2.49]
Reactivity k2 ([1]; TZ with TCO in MeCN at 20° C.): 0.44 M⁻¹ s⁻¹

half-life at 250 µM [3]: > 400 h
SMILES: O=C(Nc1ccccc1)OC/C=C/c1nnc(-c2ccccc2)nn1 [Compound 2.53]

SMILES: CC(C)c1nnc(/C=C/COC(=O)Nc2ccccc2)nn1 [Compound 2.57]
Reactivity k2 ([1]; TZ with TCO in MeCN at 20° C.): 0.33 M⁻¹ s⁻¹ | half-life at 250 µM (physchem): > 400 h

SMILES: O=C(NCc1nnc(CNC(=O)Oc2ccccc2)nn1)Oc1ccccc1 [Compound 3.2]
Release % (conversion) ([2]; Method B: 33% MeCN in PBS at 37° C., 19 h): 25% (19 h)

SMILES: O=C(NC1CCCC1c1nnc(-c2ccccc2)nn1)Oc1ccccc1 (centres unmarked) [Compound 3.25]
half-life (physchem): > 140 h | Release % (conversion) ([2]; Method G: 50% MeCN in PBS at 37° C., 16 h): 57% (16 h)

half-life at 250 µM [3]: > 150 h
SMILES: O=C(Oc1ccccc1)N1CCCC1c1nnc(-c2ccccc2)nn1 (centres unmarked) [Compound 3.27]
Release % (conversion) ([2]; Method C: 20% MeCN in PBS at 37° C., 24 h): 49% | Release % (conversion) ([2]; Method C: 20% MeCN in PBS at 37° C., 48 h): 72%

SMILES: CCN(Cc1nnc(-c2cccc(NC(=O)COCCOCCOCCOCCOCCOCCOCCOCCOCCOCCOC)c2)nn1)C(=O)Oc1ccc(COC(=O)Nc2ccc3c(C)cc(=O)oc3c2)cc1 [Compound 3.33]
Reactivity k2 ([1]; TZ with TCO in MeCN at 20° C. (cyclization series)): 4.7 M⁻¹ s⁻¹ | Release % (conversion) ([7]; 1 h): 20% | Release % (conversion) ([7]; 8 h): 80% | Reactivity k2 [8]: 520 ([5]) M^−1 s^−1 | half-life (physchem): 200 h | Release % (conversion) ([2]; Method E: 5% MeCN in PBS at 37° C., 1 h): 50% | Release % (conversion) ([2]; Method E: 5% MeCN in PBS at 37° C., 4 h): 80% | Release % (conversion) ([2]; Method E: 5% MeCN in PBS at 37° C., 72 h): 90%

SMILES: O=C(NCCOCCOCCOCCOCCOCCOCCOCCOCCOCCO)[C@@H]1[C@@H]2CC/C=C/CC[C@@H]21 [Compound 4.6]
^111In-uptake in tumor ([9]; after 48 h activator 100 eq): 0.15 ± 0.05 % ID/g | ^111In-uptake in tumor ([9]; after 48 h activator 1000 eq): 0.14 ± 0.52 % ID/g

SMILES: O=C(O)[C@@H]1[C@@H]2CC/C=C/CC[C@@H]21 [Compound 4.8, (E-endo)-bicyclo[6.1.0]non-4-ene-9-carboxylic acid]
^111In-uptake in tumor ([9]; after 48 h activator 100 eq): 0.13 ± 0.03 % ID/g | ^111In-uptake in tumor ([9]; after 48 h activator 1000 eq): 0.10 ± 0.03 % ID/g
